Residues, ends and D or L forms follow the SMILES beside them. Groups on a side chain read outwards from the residue. *: point of attachment. Biotin = O=C1N[C@H]2[C@H](CS[C@H]2CCCCC(=O)*)N1; X1 = CN1C(=O)C[C@H](C(=O)*)[C@H]1c1cccnc1; PEG6 = NCCOCCOCCOCCOCCOCCOCCC(=O)O
What was measured:
[1] = mouse, in vivo
Procedure: Blood samples were collected from intra-orbital vein at 0, 1, 24, 48, 72, 96 and 168 hrs post-injection. The samples were left at the room temperature for 2 hrs until the blood coagulated. Subsequently, serum was acquired by centrifuging at 3500 rpm for 15 min at 4° C.
After washing with 0.05% PBST, HRP-conjugated streptavidin (Thermo Fisher Scientific Pierce) was added and cultured for 1 hr at 37° C. After washing, TMB was added to each well and the absorbance was measured at 650 nm.

[2] = test system: EGFR on the A549 cell surface; assay: Flow cytometry on A549 cells; type: cell-based, human
Procedure: A549 cells were seeded in a v-bottom 96-well plate (Corning) in the final concentration of 4×10^5 cells per each sample. […] After washing with the flow cytometry buffer, the cells were cultured with phycoerythrin (PE)-conjugated streptavidin (BD Biosciences Pharminogen, San Diego, Calif., USA) and FITC-conjugated anti-human IgG (Fc specific) antibody (Thermo Fisher Scientific Pierce) in the dark for 1 hr at 37° C. After additional washing with the same buffer, the cells were resuspended in 200 μL PBS, and analyzed through flow cytometry using FACS Canto II instrument equipped with a 488-nm laser (BD Bioscience, San Jose, Calif., USA). 10,000 cells per measurement were detected and data were analyzed with FlowJo software (TreeStar, Ashland, Oreg., USA).

[3] = test system: A549 cells; assay: Cell viability assay (Cell Titer-Glo, 72 hrs); type: cell-based, human; settings: ATP content
Procedure: A549 cells were seeded in 50 μL RPMI-1640 medium in black-walled 96-well plates (4,000 cells per well) and allowed to adhere overnight at 37° C. in 5% CO2 and humidified atmosphere. […] The cotinine-duocarmycin and antibody dilutes in 50 μL medium were added to each well, and cultured for 72 hrs. After adding Cell Titer-Glo reagent (Promega Corp.) to each well, luminescence signals were measured using a microplate luminometer (PerkinElmer, Waltham, Mass., USA) according to the manufacturer's instructions. All experiments were conducted in triplicate. The relative cell viability was calculated by dividing by the control luminescence signal [% viability=(Test−Background)/(Control−Background)×100].

[4] = test system: A549 xenograft tumor; assay: A549 xenograft tumor growth; type: in vivo, Balb/c-nude mice; settings: intraperitoneally for five weeks, n=4/group
Procedure: Six-week-old female Balb/c-nude mice were subcutaneously injected with the A549 (1×10^7 cells) on the left and right flank of each mouse. When the tumor volume reached approximate 150 mm^3, all animals were randomly divided into three groups (n=4/group) and treated for five weeks. […] Then, three times dose of the drugs were injected thrice a week for the following three weeks. Palivizumab was used as an isotype control of the bispecific antibody. DMSO was used as a vehicle control of cotinine-duocarmycin. The tumor volume was measured using digital calipers twice a week in 32 days after injection. Tumor volume was calculated as length×(width)^2×0.5, where the length is the longest axis and the width is the distance perpendicular to the length. Systemic toxicity was evaluated by measuring body weight twice a week. Mice were sacrificed on the day 35 after injection and tumors were dissected and weighted.
To evaluate the in vivo efficacy of ERC6-complexed cotinine-duocarmycin, cetuximab-refractory A549 cells were grafted to mice (n=4/group). […] Drugs were administered to the mice twice a week for two weeks, and then thrice a week for three weeks.

Compound	half-life [1] [min]	binding activity of cotinine-biotin to A549 cell (streptavidin-PE signal) ([2]; ERC6 present)	binding activity of cotinine-biotin to A549 cell (streptavidin-PE signal) ([2]; mixture with anti-cotinine IgG)	binding activity of cotinine-biotin to A549 cell (streptavidin-PE signal) ([2]; mixture with cetuximab)	cytotoxic / anti-proliferative effect (relative cell viability) [3]	inhibition of tumor growth [4]
CN1C(=O)C[C@H](C(=O)NCCCC[C@H](NC(=O)[C@H](CO)NC(=O)CNC(=O)CNC(=O)CNC(=O)CNC(=O)[C@H](CCCCNC(=O)CCOCCOCCOCCOCCOCCOCCNC(=O)CCCC[C@@H]2SC[C@@H]3NC(=O)N[C@@H]32)NC(=O)[C@H](CO)NC(=O)CNC(=O)CNC(=O)CNC(=O)CNC(=O)[C@H]2CC(=O)N(C)[C@@H]2c2cccnc2)C(=O)O)[C@H]1c1cccnc1 [cotinine-biotin, cotinine-GGGGSK[(dPEG6)-biotin]GGGGSK-cotinine] (X1-GGGGSK([PEG6-Biotin])GGGGSK(X1)-OH)	33.4	showed the binding activity to the A549 cell	did not produce any significant signal	did not produce any significant signal	–	–
COC(=O)c1cc2c([nH]1)C(=O)C=C1N(C(=O)c3cc4cc(OC)c(OC)c(OC)c4[nH]3)C[C@H]3C[C@]123 [free duocarmycin, duocarmycin, reference compound]	–	–	–	–	stronger anti-tumor effect than the cotinine-duocarmycin	–
cotinine-[GSK(duocarmycin)]4K-cotinine [cotinine-duocarmycin]	–	–	–	–	potent anti-proliferative effect	could not be selectively delivered to the tumor site and inhibit the tumor growth

— patent US11167037B2, “Antibody drug conjugate platform using bispecific antibody” (SEOUL NATIONAL UNIVERSITY R&DB FOUNDATION, priority 2016, dated 2021)
